Measurements reported in patent US6462064B1, “Apoptosis inducing adamantyl derivatives and their usage as anti-cancer agents, especially for cervical cancers and dysplasias” (Galderma Research & Development S.N.C., priority 1996, dated 2002).
Entries after “also recorded” stand apart in the source; their conditions may differ.

system: cervical cancer cell lines; assay: Apoptosis, cellular DNA fragmentation ELISA (FIG. 8); format: cell-based, human; settings: eighteen hours; adapalene 1, 5 and 10 μM, tRA 10 μM, ceramide 0.5 mM
Procedure: In this experiment cells were labeled with BrdU for six hours. After labeling, cells were treated with vehicle (DM50), or with 10 μM tRA, 0.5 mM ceramide or doses of adapalene of 1, 5 and 10 μM for eighteen hours. Apoptosis was measured using a cellular DNA fragmentation ELISA kit (available from Boehringer). […] Therein, one unit represents the value obtained from cells grown in the presence of vehicle alone.

Row | Molecule | induction of apoptosis
1 | Ceramide | effectively induced apoptosis

system: human cervical cancer cell lines (C33A cells and Caski cells); assay: Proliferation of human cervical cancer cell lines (Example 33, FIG. 7); format: cell-based; settings: not given
Procedure: Another experiment was also conducted to compare the effect of three different retinoid compounds according to the invention, i.e., 6-[3-(1-adamantyl)-4-methoxyphenyl]-2-naphthoic acid, 2-[3-(1-adamantyl)-4-methoxyphenyl]-5-benzimidazole carboxylic acid, and 6-[3-(1-adamantyl)-4,5-methylenedioxyphenyl]-2-naphthoic acid, a control (DMSO), and a control retinoid (all-trans retinoic acid) on the proliferation of several human cervical cancer cell lines (C33A cells and Caski cells).

Row | Molecule | effect on proliferation of human cervical cell lines
2 | COc1ccc(-c2nc3ccc(C(=O)O)cc3[nH]2)cc1C12CC3CC(CC(C3)C1)C2 [Compound 2, 2-[3-(1-adamantyl)-4-methoxyphenyl]-5-benzimidazole carboxylic acid] | strong inhibitory effect

system: various human cancer cell lines; assay: Anti-cancer activity against human cancer cell lines over a concentration range (FIGS. 2-4); format: cell-based; settings: retinoid concentrations 10^−9 M to 10^−5 M
Source text: FIG. 2 compares the activity of selected adamantyl retinoids according to the invention and all-trans-retinoic acid against a human non-small lung carcinoma cell line.
FIG. 3 compares the activity of selected adamantyl retinoids according to the invention and all-trans-retinoic acid against human prostate adenocarcinoma, human metastatic prostate adenocarcinoma, and human prostate carcinoma cell lines.
FIG. 4 compares the activity of selected adamantyl retinoids according to the invention and all-trans-retinoic acid against a human liver cancer cell line.

Row | Molecule | anti-cancer activity
3 | COc1ccc(-c2nc3ccc(C(=O)O)cc3[nH]2)cc1C12CC3CC(CC(C3)C1)C2 [Compound 2, 2-[3-(1-adamantyl)-4-methoxyphenyl]-5-benzimidazole carboxylic acid] | significant anti-cancer activity
4 | O=C(O)c1ccc2cc(-c3ccc(CO)c(C45CC6CC(CC(C6)C4)C5)c3)ccc2c1 [Compound 3, 6-[3-(1-adamantyl)-4-hydroxymethylphenyl]-2-naphthoic acid] | significant anti-cancer activity
5 | COc1cc(-c2ccc3cc(C(=O)O)ccc3c2)cc(C23CC4CC(CC(C4)C2)C3)c1O [Compound 4, 6-[3-(1-adamantyl)-4-hydroxy-5-methoxyphenyl]-2-naphthoic acid] | significant anti-cancer activity

system: cancer cells; assay: List of active compounds: types of cancers and precancers active against; format: cell-based; settings: not given
Source text: As discussed, the adamantyl retinoid derivatives according to the invention which induce apoptosis are useful for treating many different types of cancers.

Row | Molecule | Types of Cancers and Precancers Active Against
6 | COc1ccc(-c2nc3ccc(C(=O)O)cc3[nH]2)cc1C12CC3CC(CC(C3)C1)C2 [Compound 2, 2-[3-(1-adamantyl)-4-methoxyphenyl]-5-benzimidazole carboxylic acid] | brain, colon, leukemia, lung,; also recorded: cervical (including, e.g.,; also recorded: cervical intraepithelial neoplasia; also recorded: I, II, III), lymphoma, myeloma,; also recorded: ovarian, pancreatic, prostate,; also recorded: skin, liver
7 | O=C(O)c1ccc2cc(-c3ccc(CO)c(C45CC6CC(CC(C6)C4)C5)c3)ccc2c1 [Compound 3, 6-[3-(1-adamantyl)-4-hydroxymethylphenyl]-2-naphthoic acid] | bladder, brain, breast, cervical,; also recorded: colon, head and neck, leukemia,; also recorded: kidney, lung, myeloma, ovarian,; also recorded: pancreatic, prostate, skin, liver
8 | COc1cc(-c2ccc3cc(C(=O)O)ccc3c2)cc(C23CC4CC(CC(C4)C2)C3)c1O [Compound 4, 6-[3-(1-adamantyl)-4-hydroxy-5-methoxyphenyl]-2-naphthoic acid] | brain, breast, kidney, lung,; also recorded: leukemia, lymphoma, myeloma,; also recorded: ovarian, pancreatic, prostate,; also recorded: skin, liver
9 | O=C(O)c1ccc2cc(-c3ccc(OCC(O)CO)c(C45CC6CC(CC(C6)C4)C5)c3)ccc2c1 (stereo not drawn) [Compound 34, 6-[3-(1-adamantyl)-4-(2,3-dihydroxypropoxy)phenyl]-2-naphthoic acid] | leukemia, skin
10 | COC(=O)c1ccc(C(=O)Nc2ccc(C(=O)O)cc2)cc1C12CC3CC(CC(C3)C1)C2 [Compound 35, N-4-carboxyphenyl 3-(1-adamantyl)-4-(methoxycarbonyl)benzamide] | leukemia, lymphoma, myeloma
11 | O=C(O)c1ccc2cc(-c3cc(O)c(O)c(C45CC6CC(CC(C6)C4)C5)c3)ccc2c1 [Compound 36, 6-[3-(1-adamantyl)-4,5-dihydroxyphenyl]-2-naphthoic acid] | brain, head and neck, leukemia,; also recorded: lymphoma, myeloma, pancreatic
12 | CC12CC3CC(C1)CC(c1cc(-c4ccc5cc(C(=O)O)ccc5c4)cc4c1OCO4)(C3)C2 [Compound 37, 6-[3-(3-methyl-1-adamantyl)-4,5-methylenedioxyphenyl]-2-naphthoic acid] | kidney, leukemia, lung,; also recorded: lymphoma, skin
13 | O=C(O)c1ccc2cc(-c3cc4c(c(C56CC7CC(CC(C7)O5)C6)c3)OCO4)ccc2c1 [Compound 38, 6-[3-(2-oxa-1-adamantyl)-4,5-methylenedioxyphenyl]-2-naphthoic acid] | leukemia, skin
14 | COc1ccc(-c2ccc3cc(C(=O)O)ccc3c2)cc1C12CC3CC(CC(C3)O1)C2 [Compound 39, 6-[3-(2-oxa-1-adamantyl)-4-methoxyphenyl]-2-naphthoic acid] | kidney, lymphoma, skin, liver
15 | COc1ccc(-c2ccc3cc(C(=O)O)ccc3c2)cc1C12CC3CC(CC(C)(C3)O1)C2 [Compound 40, 6-[3-(2-oxa-3-methyl-1-adamantyl)-4-methoxyphenyl]-2-naphthoic acid] | bladder, breast, kidney,; also recorded: leukemia, lung, lymphoma,; also recorded: ovarian, prostate, skin
16 | COc1ccc(-c2ccc3cc(C(=O)O)ccc3c2)cc1C12CC3CC(CC(C)(C3)C1)C2 [Compound 41, 6-[3-(3-methyl-1-adamantyl)-4-methoxyphenyl]-2-naphthoic acid] | skin
17 | COc1ccc(-c2ccc3cc(C(=O)O)ccc3c2)cc1C12CC3CC(C)(CC(C)(C3)C1)C2 [Compound 42, 6-[3-(3,5-dimethyl-1-adamantyl)-4-methoxyphenyl]-2-naphthoic acid] | skin
18 | CC12CC3CC(C)(C1)CC(c1cc(-c4ccc5cc(C(=O)O)ccc5c4)cc4c1OCO4)(C3)C2 [Compound 43, 6-[3-(3,5-dimethyl-1-adamantyl)-4,5-methylenedioxyphenyl]-2-naphthoic acid] | prostate, breast, neuroblastoma
19 | COc1ccc(-c2ccc3cc(C(=O)N4CCCNCC4)ccc3c2)cc1C12CC3CC(CC(C3)C1)C2 [Compound 44, N-{6-[3-(1-adamantyl)-4-methoxyphenyl]-2-naphthalenecarboxoyl}homopiperazide] | bladder, kidney, epidermal,; also recorded: leukemia lung, neuroblastoma,; also recorded: hepatoma, cervix, skin
20 | COc1ccc(-c2ccc3cc(C(=O)NCCN)ccc3c2)cc1C12CC3CC(CC(C3)C1)C2 [Compound 45, N-(2-aminoethyl)-{6-[3-(1-adamantyl)-4-methoxyphenyl]-2-naphthalenecarboxamide]] | bladder, kidney, prostate,; also recorded: leukemia, breast, lung, neuro-; also recorded: blastoma, hepatoma, pancreas,; also recorded: cervix skin
21 | O=C(c1ccc2cc(-c3cc4c(c(C56CC7CC(CC(C7)C5)C6)c3)OCO4)ccc2c1)N1CCNCC1 [Compound 46, N-{6-[3-(1-adamantyl)-4,5-methylenedioxy]-2-naphthalenecarboxoyl}piperazide] | prostate, neuroblastoma,; also recorded: hepatoma
22 | O=C(c1ccc2cc(-c3cc4c(c(C56CC7CC(CC(C7)C5)C6)c3)OCO4)ccc2c1)N1CCCNCC1 [Compound 47, N-{6-[3-(1-adamantyl)-4,5-methylenedioxy]-2-naphthalenecarboxoyl}homopiperazide] | bladder, neuroblastoma, cervix, and skin
23 | NCCNC(=O)c1ccc2cc(-c3cc4c(c(C56CC7CC(CC(C7)C5)C6)c3)OCO4)ccc2c1 [Compound 48, N-(2-aminoethyl)-{6-[3-(1-adamantyl)-4,5-methylenedioxyphenyl]-2-naphthalenecarboxamide}] | breast, hepatoma, skin
24 | CC12CC3CC(C1)CC(c1cc(-c4ccc5cc(C(=O)O)ccc5c4)ccc1O)(C3)C2 [Compound 49, 6-[3-(3-methyl-1-adamantyl)-4-hydroxyphenyl]-2-naphthalenecarboxylic acid] | breast, neuroblastoma, leukemia
